# Patent publication US7682351B2, “Method for infusing insulin to a subject to improve impaired hepatic glucose processing” (priority 2003, dated 2010)
# Entries after “also recorded” stand apart in the source; their conditions may differ.
# How the values were obtained:
# Assay type in all cases: in vivo, human
# [1] = system: diabetic patients with retinopathy; assay: Case reports: diabetic retinopathy patients treated with the subject method; details: single patients with retinopathy; listed as subject method
# Description: (§1) The preferred embodiment of the method for delivering insulin pulses to a patient to improve impaired hepatic glucose processing is as follows. On the morning of the procedure, the patient is preferably seated in a blood drawing chair and a 23 gauge needle or catheter is preferably inserted into a hand or forearm vein to obtain vascular access. However, any system of such access may accomplish the needed result, including indwelling catheters, PICC lines and PORTACATHS. After a short equilibration period, the patient is asked to make a circulating glucose measurement prior to starting the actual infusion of insulin. A steady baseline circulating glucose level is achieved when two identical consecutive measurements taken 5 minutes apart is obtained. It is preferable that patients have circulating glucose levels close to 200 mg/dl prior to using the infusion method. In the case of pregnant diabetic women, however, every attempt is made to keep the maximum circulating glucose level to 150 mg/dl or less. […]
# (§2) For all of the above listed examples, after the initial few days of treatment, the patients underwent treatment once a week, each treatment day consisting of three infusions of insulin accompanied by ingestion of carbohydrates. […] The patients' circulating glucose was measured once every thirty minutes by the finger stick method currently used by most diabetic patients. […]
# [2] = system: diabetic patients with neuropathy; assay: Case reports: diabetic neuropathy patients treated with the subject method
# Description: (§3) The preferred embodiment of the method for delivering insulin pulses to a patient to improve impaired hepatic glucose processing is as follows. On the morning of the procedure, the patient is preferably seated in a blood drawing chair and a 23 gauge needle or catheter is preferably inserted into a hand or forearm vein to obtain vascular access. However, any system of such access may accomplish the needed result, including indwelling catheters, PICC lines and PORTACATHS. After a short equilibration period, the patient is asked to make a circulating glucose measurement prior to starting the actual infusion of insulin. A steady baseline circulating glucose level is achieved when two identical consecutive measurements taken 5 minutes apart is obtained. It is preferable that patients have circulating glucose levels close to 200 mg/dl prior to using the infusion method. In the case of pregnant diabetic women, however, every attempt is made to keep the maximum circulating glucose level to 150 mg/dl or less.
# (§4) After the circulating glucose measurement has been taken and the patient has the proper circulating glucose starting level, the patient is asked to consume a liquid or food containing glucose. The amount of glucose given to s diabetic patient ranges from 60 to 100 grams, but for small framed people the amount could be as low as 40 grams of glucose. However, the amount of initial glucose given to the patient may vary. Liquid or food containing glucose is consumed by the patient to prevent the patient from becoming hypoglycemic. The preferred liquid or food is GLUCOLA, but any similar type of liquid or high glycemic food, including but not limited to cake and bread, containing glucose may be given to the patient. In a non-diabetic patient more glucose may be required than in the diabetic patient, but the other parameters would remain the same, including the need for a pulsed delivery of insulin.
# Pulses of insulin are then administered intravenously at planned intervals of time, usually every six minutes. However other intervals may be used from as low as every three minutes up to every 30 minutes. For diabetic patients the amount of insulin in each pulse is 10-200 milliunits of insulin per kilogram of body weight; for non-diabetic patients the amount of insulin in each pulse is slightly lower. […]
# as §2
# [3] = system: diabetic patients with leg ulcers; assay: Case reports: diabetes related leg ulcers treated with the subject method; details: ulcers not responding to any available therapy; listed as subject method
# Description: as §1, §2
# [4] = system: type 2 diabetic patient with diabetes related kidney disease; assay: Case report: diabetes related kidney disease (proteinuria) treated with the subject method; details: 1500 milligrams per 24-hour period before treatment, increasing 500 milligrams/24 hours/year; 5 years of use
# Description: as §1, §2
# [5] = system: patients suffering from senile dementia; assay: Senile dementia in diabetic patients treated with the method (Hepatic Activation)
# Description: as §3
# After the circulating glucose measurement has been taken and the patient has the proper circulating glucose starting level, the patient is asked to consume a liquid or food containing glucose. The amount of glucose given to s diabetic patient ranges from 60 to 100 grams, but for small framed people the amount could be as low as 40 grams of glucose. […]
# [6] = system: type 1 DM patients with nephropathy; assay: 18-month multi-center controlled study of Chronic Intermittent Intravenous Insulin Therapy (CIIIT) on progression of diabetic nephropathy
# Procedure: A study was conducted to assess the effects of Chronic Intermittent Intravenous Insulin Therapy (CIIIT) on the progression of diabetic nephropathy in patients with type 1 diabetes mellitus (DM). This 18-month multi-center, prospective, controlled study involved 49 type 1 DM patients with nephropathy who were following the Diabetes Control and Complications Trial (DCCT) intensive therapy (IT) regimen. Of these, 26 patients formed the control group C, which continued on IT, while 23 patients formed the treatment group (T) and underwent, in addition to IT, weekly CIIIT.
# For all of the above listed examples, after the initial few days of treatment, the patients underwent treatment once a week, each treatment day consisting of three infusions of insulin accompanied by ingestion of carbohydrates. The infusion device used to infuse the insulin was the BIONICA MD-110 pump. Typically there were ten pulses given over a period of one hour, and a rest period of one hour was taken between infusions of insulin. The form in which the carbohydrates were ingested changed from time to time and included eating foods of high glycemic index including but not limited to bread and cake. The patients' circulating glucose was measured once every thirty minutes by the finger stick method currently used by most diabetic patients. […]
# [7] = system: diabetic patients with heart disease; assay: Case reports: diabetic heart disease patients treated with the subject method
# Description: as §3
# as §4, with “In a non-diabetic patient more glucose may be required than in the diabetic patient, but the other parameters would remain the same, including the need for a pulsed delivery of insulin.” left out
# as §2
# [8] = system: type 2 diabetic male with autonomic neuropathy; assay: Case report: elevated blood pressure with autonomic neuropathy treated with the subject method; details: 200/120 before treatment despite intensive insulin therapy; 5 years of use
# Description: as §1, §2
# [9] = type 1 person with severe neuropathy, Example 14
substance,measurement,setting,value
insulin,eyesight / retinal outcome after treatment,[1],"eyesight improved to the point where night driving was no longer a concern; also recorded: the bleeding stopped, and there was no further deterioration of the retina"
same,neuropathic pain after treatment,"[2]; single patients with polyneuropathy / painful peripheral neuropathy, weekly treatment, listed as subject method",pain has been reduced to the point where the person enjoys rigorous exercise; also recorded: no longer takes pain medication and has no twinges of pain in their legs; also recorded: pain had subsided to the point where they no longer used a wheelchair
same,gastroparesis after treatment,[2]; [9],gastroparesis was reversed
same,numbness in legs after treatment,[2]; [9],numbness in their legs has gone away
same,autonomic neuropathy symptoms after treatment (overall disease state),"[2]; type 1 person, bed-ridden with autonomic neuropathy before treatment, two years of use",reversed all of the diseases to the point where they have taken themself off disability
same,leg ulcer outcome after treatment,[3],ulcers on their second leg healed; also recorded: ulcers healed and have never returned
same,proteinuria after treatment,[4],600-800 milligrams/24 hours
same,dementia symptoms after treatment,[5]; listed as Hepatic Activation,"significant improvement in their motor skills, memory, and cognitive function"
same,dementia symptoms after treatment,[5]; listed as present invention,"clearly shown improvement in confusion, weakness, disorientation, cognitive function and lack of memory"
same,effect on progression of diabetic nephropathy (conclusion),[6]; CIIIT added to IT in type 1 DM patients with overt nephropathy,markedly reduce the progression of diabetic nephropathy
same,rate of creatinine clearance (CrCl) decline,"[6]; T group (n=23): DCCT intensive therapy (IT) plus weekly CIIIT, 18 months, control group C on IT alone 7.69±1.88 ml/min/yr, P=0.0343",2.21±1.62 ml/min/yr
same,cardiac clinical outcome after treatment,"[7]; single patients with diabetes related heart disease, listed as subject method",no longer required a heart transplant; also recorded: could withstand 4-vessel by-pass surgery; also recorded: condition improved to the point where the doctors performed two instead of one grafts
same,daily insulin intake after treatment,"[7]; type 2 patient with dilated cardiomyopathy, 150 units a day before treatment",24-26 units/day
same,ejection fraction after treatment,"[7]; type 2 patient with severe dilated cardiomyopathy, 14-19% before treatment, 10 years of treatment",29-32%
same,blood pressure after treatment,[8],120/80
